The results in this text go back to patent US9326973B2, “Hepatitis C virus inhibitors” (priority 2012, dated 2016).

The assay has as its system HCV replicon, genotype-1a variant with glutamine 30 changed to glutamate in the NS5A protein. In words: microbe, parasite or virus in culture. In kind it is cell-based, HCV genotype 1a. Particulars: HCV replicon genotype 1a Q30E (Q→E) variant; test compound titrated with an NS5A-targeting compound (BMS-790052 fixed at 200 nM); ranking of synergist activity. A digest of the protocol:
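Synergy was assessed by combining several fixed amounts of an NS5A-targeting compound with a titration of the second compound of interest.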

Turning to `C[C@@H]1CN(C(=O)C(C)(C)C(=O)N[C@H](c2nc(-c3ccc(-c4ccc(-c5c[nH]c([C@@H](NC(=O)C(C)(C)C(=O)N6C[C@@H](C)O[C@@H](C)C6)C(C)(C)C)n5)cc4)cc3)c[nH]2)C(C)(C)C)C[C@H](C)O1` [Compound W-154], the “Fold-Synergistic 1a (Q30E)” value is recorded as more than 100 fold.
`CC(C)(C(=O)N[C@H](c1nc(-c2ccc(-c3ccc(-c4c[nH]c([C@@H](NC(=O)C(C)(C)C(=O)NC56CC(C5)C6)C(C)(C)C)n4)cc3)cc2)c[nH]1)C(C)(C)C)C(=O)NC12CC(C1)C2` [Compound W-155]: the “Fold-Synergistic 1a (Q30E)” value is more than 100 fold.
For `CCN(CC1CC1)C(=O)C(C)(C)C(=O)N[C@H](c1nc(-c2ccc(-c3ccc(-c4c[nH]c([C@@H](NC(=O)C(C)(C)C(=O)N(CC)CC5CC5)C(C)(C)C)n4)cc3)cc2)c[nH]1)C(C)(C)C` [Compound W-156] the value was more than 100 fold; for `CCN(CCOC)C(=O)C(C)(C)C(=O)N[C@H](c1nc(-c2ccc(-c3ccc(-c4c[nH]c([C@@H](NC(=O)C(C)(C)C(=O)N(CC)CCOC)C(C)(C)C)n4)cc3)cc2)c[nH]1)C(C)(C)C` [Compound W-157], more than 10 fold; for `CCN(CCC#N)C(=O)C(C)(C)C(=O)N[C@H](c1nc(-c2ccc(-c3ccc(-c4c[nH]c([C@@H](NC(=O)C(C)(C)C(=O)N(CC)CCC#N)C(C)(C)C)n4)cc3)cc2)c[nH]1)C(C)(C)C` [Compound W-158], more than 100 fold.
The result for `C[C@@H]1CN(C(C)(C)C(=O)N[C@H](c2nc(-c3ccc(-c4ccc(-c5c[nH]c([C@@H](NC(=O)C(C)(C)N6C[C@@H](C)O[C@@H](C)C6)C(C)(C)C)n5)cc4)cc3)c[nH]2)C(C)(C)C)C[C@H](C)O1` [Compound W-160] reads more than 10 fold.
`CC(C)[C@H](NC(=O)C(C)(C)N1C[C@@H](C)O[C@@H](C)C1)c1nc(-c2ccc(-c3ccc(-c4c[nH]c([C@@H](NC(=O)C(C)(C)N5C[C@@H](C)O[C@@H](C)C5)C(C)C)n4)cc3)cc2)c[nH]1` [Compound W-161]: the “Fold-Synergistic 1a (Q30E)” value is listed as more than 100 fold.
Turning to `C[C@@H]1CN(C(C)(C)C(=O)N[C@H](c2nc(-c3ccc(-c4ccc(-c5c[nH]c([C@@H](NC(=O)C(C)(C)N6C[C@@H](C)O[C@@H](C)C6)C6(C)CC6)n5)cc4)cc3)c[nH]2)C2(C)CC2)C[C@H](C)O1` [Compound W-162], the “Fold-Synergistic 1a (Q30E)” value is more than 100 fold.
For `CC1(C)CCCC(C)(C(=O)N[C@H](c2nc(-c3ccc(-c4ccc(-c5c[nH]c([C@@H](NC(=O)C6(C)CCCC(C)(C)O6)C(C)(C)C)n5)cc4)cc3)c[nH]2)C(C)(C)C)O1` (stereo partly drawn) [Compound W-165] the value was more than 100 fold; for `CC1(C)CCCC(C)(C(=O)N[C@H](c2nc(-c3ccc(-c4ccc(-c5c[nH]c([C@@H](NC(=O)C6(C)CCCC(C)(C)O6)C(C)(C)C)n5)cc4)cc3)c[nH]2)C(C)(C)C)O1` (stereo partly drawn) [Compound W-167], more than 100 fold.
Consider `CC1(C)CCCC(C)(C(=O)N[C@H](c2nc(-c3ccc(-c4ccc(-c5c[nH]c([C@@H](NC(=O)C6(C)CCCC(C)(C)O6)C(C)(C)C)n5)cc4)cc3)c[nH]2)C(C)(C)C)O1` (stereo partly drawn) [Compound W-168], for which the “Fold-Synergistic 1a (Q30E)” value was more than 10 fold.
Take `CC(C)(C)[C@H](NC(=O)[C@H]1C[C@@](C)(O)C1)c1nc(-c2ccc(-c3ccc(-c4c[nH]c([C@@H](NC(=O)[C@H]5C[C@@](C)(O)C5)C(C)(C)C)n4)cc3)cc2)c[nH]1` [Compound W-169]: the “Fold-Synergistic 1a (Q30E)” value is on record as more than 100 fold.
For `CC(C)(C)[C@H](NC(=O)[C@H]1C[C@](C)(O)C1)c1nc(-c2ccc(-c3ccc(-c4c[nH]c([C@@H](NC(=O)[C@H]5C[C@](C)(O)C5)C(C)(C)C)n4)cc3)cc2)c[nH]1` [Compound W-170] the value was more than 100 fold.
For `CC(C)(C)[C@H](NC(=O)C1CC(=O)C1)c1nc(-c2ccc(-c3ccc(-c4c[nH]c([C@@H](NC(=O)C5CC(=O)C5)C(C)(C)C)n4)cc3)cc2)c[nH]1` [Compound W-171], the “Fold-Synergistic 1a (Q30E)” value was more than 100 fold.
For `CC(C)[C@H](NC(=O)C1CC(=O)C1)c1nc(-c2ccc(-c3ccc(-c4c[nH]c([C@@H](NC(=O)C5CC(=O)C5)C(C)C)n4)cc3)cc2)c[nH]1` [Compound W-172] the value was more than 10 fold; for `CC(C)(C)[C@H](NC(=O)C1CCC(=O)CC1)c1nc(-c2ccc(-c3ccc(-c4c[nH]c([C@@H](NC(=O)C5CCC(=O)CC5)C(C)(C)C)n4)cc3)cc2)c[nH]1` [Compound W-173], more than 100 fold; for `CC1([C@H](NC(=O)C2CC(=O)C2)c2nc(-c3ccc(-c4ccc(-c5c[nH]c([C@@H](NC(=O)C6CC(=O)C6)C6(C)CC6)n5)cc4)cc3)c[nH]2)CC1` [Compound W-174], more than 100 fold.
Consider `CC(C)(C)[C@H](NC(=O)[C@H]1CC[C@@](C)(O)CC1)c1nc(-c2ccc(-c3ccc(-c4c[nH]c([C@@H](NC(=O)[C@H]5CC[C@@](C)(O)CC5)C(C)(C)C)n4)cc3)cc2)c[nH]1` [Compound W-175], for which the “Fold-Synergistic 1a (Q30E)” value is reported as more than 100 fold.
In the case of `CC(C)[C@H](NC(=O)C1CC2(C1)OCCO2)c1nc(-c2ccc(-c3ccc(-c4c[nH]c([C@@H](NC(=O)C5CC6(C5)OCCO6)C(C)C)n4)cc3)cc2)c[nH]1` (stereo partly drawn) [Compound W-176], the “Fold-Synergistic 1a (Q30E)” value is recorded as more than 100 fold.
For `CC(C)(C)[C@H](NC(=O)C1CC2(C1)OCCO2)c1nc(-c2ccc(-c3ccc(-c4c[nH]c([C@@H](NC(=O)C5CC6(C5)OCCO6)C(C)(C)C)n4)cc3)cc2)c[nH]1` (stereo partly drawn) [Compound W-178], the “Fold-Synergistic 1a (Q30E)” value is on record as more than 100 fold.
On to `CC(C)(C)[C@H](Nc1nc(C(F)(F)F)c(Cl)s1)c1nc(-c2ccc(-c3ccc(-c4c[nH]c([C@@H](Nc5nc(C(F)(F)F)c(Cl)s5)C(C)(C)C)n4)cc3)cc2)c[nH]1` [Compound W-180], for which the “Fold-Synergistic 1a (Q30E)” value was less than 10 fold.
For `CC(C)[C@H](NC(=O)[C@@H]1C[C@@H](F)CN1C(=O)OC(C)(C)C)c1nc(-c2ccc(-c3ccc(-c4c[nH]c([C@@H](NC(=O)[C@@H]5C[C@@H](F)CN5C(=O)OC(C)(C)C)C(C)C)n4)cc3)cc2)c[nH]1` [Compound W-181] the value was more than 100 fold; for `CC(C)(C)OC(=O)N1C[C@H](F)C[C@H]1C(=O)N[C@H](c1nc(-c2ccc(-c3ccc(-c4c[nH]c([C@@H](NC(=O)[C@@H]5C[C@@H](F)CN5C(=O)OC(C)(C)C)C5(C)CC5)n4)cc3)cc2)c[nH]1)C1(C)CC1` [Compound W-182], more than 100 fold.
`CC(C)(C)[C@H](Nc1nc2ccccc2s1)c1nc(-c2ccc(-c3ccc(-c4c[nH]c([C@@H](Nc5nc6ccccc6s5)C(C)(C)C)n4)cc3)cc2)c[nH]1` [Compound W-183]: the “Fold-Synergistic 1a (Q30E)” value is recorded as more than 10 fold.
For `C[C@H]1CCN(C(=O)C(=O)N2CCC(F)(F)CC2)C1c1nc(-c2ccc(-c3ccc(-c4c[nH]c([C@@H]5[C@@H](C)CCN5C(=O)C(=O)N5CCC(F)(F)CC5)n4)cc3)cc2)c[nH]1` (stereo partly drawn) [Compound W-186] the value was more than 100 fold; for `C[C@H]1CCN(C(=O)C(=O)N2CCC(F)(F)CC2)C1c1nc(-c2ccc(-c3ccc(-c4c[nH]c([C@@H]5[C@@H](C)CCN5C(=O)C(=O)N5CCC(F)(F)CC5)n4)cc3)cc2)c[nH]1` (stereo partly drawn) [Compound W-187], more than 100 fold.
For `C[C@H]1CCN(C(=O)C2CCC(F)(F)CC2)[C@@H]1c1nc(-c2ccc(-c3ccc(-c4c[nH]c([C@@H]5[C@@H](C)CCN5C(=O)C5CCC(F)(F)CC5)n4)cc3)cc2)c[nH]1` [Compound W-188], the “Fold-Synergistic 1a (Q30E)” value is more than 10 fold.
